# Earlier results, collected in patent publication US12257290B2, “PIC1 inhibition of myeloperoxidase oxidative activity in an animal model” (priority 2018, dated 2025).
# Conditions: intranasal administration; animal models; cited from earlier work
substance,measurement,value
DNase,symptoms of TRALI,reduced symptoms of TRALI
